TGI data for 26 compounds are collected here from PubChem BioAssay (NCI).

Common to all, as to experiment: growth of human tumour cells (NCI), 48 h
The test system of experiment [1] is T-47D breast.
Experiment [2] deals with SF-539 CNS.
In experiment [3] the test system is 786-0 renal.
The subject of experiment [4] is MDA-N.
The test system of experiment [5] is BT-549 breast.
Experiment [6] deals with UACC-62 melanoma.
For experiment [7], the system named is OVCAR-3 ovarian.
The subject of experiment [8] is HT29 colon.
Experiment [9] has as its system SF-268 CNS.
Experiment [10] concerns SR leukemia.
The test system of experiment [11] is U251 CNS.

SMILES strings stand for the structures.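 Values below derive from 48-hour exposures of cells grown in 96-well plates, with endpoints linearly interpolated between the two concentrations bracketing the appropriate inhibition level. TGI marks complete inhibition of growth.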

For the compound `CCCNc1ncnc2[nH]ncc12`, the TGI in [1], in experiment [2], in experiment [3], in experiment [4], in [5] and in [6] was greater than 100 µM throughout. In addition, the TGI in experiment [7], in [8], in [9], in experiment [10] and in experiment [11] was greater than 100 µM each time.

For `CN(C)c1ccc(/C=C2\N=C(c3ccccc3)N(c3ccc4c(c3)Sc3cc(N5C(=O)/C(=C/c6ccc(N(C)C)cc6)N=C5c5ccccc5)ccc3N4)C2=O)cc1`, the TGI in [1] was 48 µM; in experiment [2], 32.8 µM; in experiment [3] it was 45.6 µM; in experiment [4] it was greater than 100 µM; in [5] it was 66.6 µM; in experiment [6] it was 33.7 µM. Besides, the TGI in experiment [7] is 25.8 µM; in experiment [8], greater than 100 µM; in experiment [9] it was 37.3 µM; in [10] it was greater than 100 µM; in experiment [11] it was 29 µM.

Regarding `COc1ccc(C(O)CC(O)(C(F)(F)F)C(F)(F)F)cc1` (configuration not stated), the TGI is greater than 100 µM in experiment [1]; 55.3 µM in experiment [2]; greater than 100 µM in experiment [3]; greater than 100 µM in experiment [4]; 87.4 µM in [6]; 69.8 µM in experiment [7]. For the same compound, the TGI in [8] is greater than 100 µM; in experiment [9], greater than 100 µM; in experiment [10], 56.3 µM; in experiment [11], greater than 100 µM.

Take `O=C(/C=C/c1cccs1)c1ccccc1Cl`: the TGI is 22.8 µM in experiment [1]; greater than 69.1 µM in experiment [2]; 27.8 µM in experiment [3]; 33.9 µM in [4]; 27.5 µM in experiment [6]; 28.2 µM in experiment [7]. Moreover, the TGI in experiment [8] is 42.5 µM; in experiment [9], 26.4 µM; in experiment [10] it was greater than 47.6 µM; in [11] it was 27.7 µM.

Regarding `CCN(CC)c1nc(N(C)C)c2ccccc2n1`, the TGI in experiment [1] was greater than 100 µM; in experiment [2] it was 96.1 µM; in experiment [3], greater than 100 µM; in experiment [4] it was 59.9 µM; in experiment [5], greater than 100 µM; in experiment [6], 56.1 µM. The TGI in experiment [8] was greater than 100 µM; in experiment [9] it was greater than 100 µM; in experiment [10] it was 27.5 µM; in experiment [11], greater than 100 µM.

With `Cn1c2ccccc2n2c3ncccc3c(=S)c(C#N)c12`, the TGI in experiment [1], in experiment [3], in [4], in experiment [5], in [6] and in [7] was greater than 100 µM throughout. The TGI in experiment [8], in [9], in experiment [10] and in experiment [11] was greater than 100 µM throughout.

Turning to `CC(C)(C)OC(=O)n1cc(C2CN(O)C(=O)C23CCC(=O)N3Cc2ccccc2)c2ccccc21` (configuration not stated), the TGI in experiment [1], in experiment [2], in [3], in experiment [4], in experiment [6] and in experiment [7] was greater than 100 µM in each case. For the same compound, the TGI in experiment [8], in experiment [9], in experiment [10] and in experiment [11] was greater than 100 µM in each case.

On to `CSc1nc(NC(C)C)c2c(n1)Sc1nc3ccccc3n1C2O` (configuration not stated), for which the TGI was 22.4 µM in [1]; greater than 100 µM in experiment [3]; 11.9 µM in experiment [4]; greater than 100 µM in experiment [5]; 5.88 µM in [7]; greater than 100 µM in experiment [8]. Moreover, the TGI in experiment [9], in experiment [10] and in [11] was greater than 100 µM each time.

With `COC(=O)C1=C(O)C(C(=O)OC)[C@]2(O)[C@H](C(=O)OC)[C@H]1C[C@@H](c1ccc([N+](=O)[O-])cc1)[C@H]2C(=O)OC` (some centres not stated), the TGI in [1] is greater than 100 µM; in experiment [2], greater than 100 µM; in experiment [3], 31 µM; in [4] it was 35.6 µM; in experiment [5] it was 39.7 µM; in experiment [6], 29.1 µM. Also, the TGI is greater than 100 µM in experiment [7], 55.6 µM in experiment [8], 51.6 µM in [9] and 28.6 µM in [11].

Take `Cc1ccc(S(=O)(=O)N(CC(O)COc2ccccc2)c2ccc(F)cc2F)cc1` (configuration not stated): the TGI in experiment [1] was 46.4 µM; in [2] it was 30 µM; in experiment [3], 31 µM; in experiment [4], 29.8 µM; in experiment [6], 31.9 µM; in experiment [7], 34.4 µM. Also, the TGI in experiment [8] turned out to be 29.4 µM; in [9], 31.8 µM; in [10] it was 73.6 µM; in experiment [11], 27.5 µM.

On to `COC(=O)[C@@H]1CN(C(=O)c2ccccc2)C(=O)N1C(=O)OCc1ccccc1`, for which the TGI in experiment [1], in [2], in experiment [3], in experiment [4], in experiment [6] and in experiment [7] was greater than 100 µM each time. The TGI in experiment [8], in [9], in experiment [10] and in experiment [11] was greater than 100 µM in each case.

Consider `CO[C@H]1C[C@H](O[C@H]2CC[C@]3(C=O)[C@H]4CC[C@]5(C)[C@@H](C6=CC(=O)OC6)CC[C@]5(O)[C@@H]4CC[C@]3(O)C2)O[C@H](C)[C@H]1O`, for which the TGI in [1] turned out to be 5.31 µM; in experiment [2], 0.218 µM; in experiment [3], 1.57 µM; in experiment [4], 1.87 µM; in experiment [5], 0.818 µM; in experiment [6], 1.27 µM. Also, the TGI in [7] was 0.556 µM; in experiment [9] it was 0.577 µM; in [11] it was 2.63 µM.

Take `CCOC(=O)C1(C(F)(F)F)N=C(CC)OC(N2CCOCC2)=N1` (configuration not stated): the TGI in experiment [1], in experiment [2], in [4], in experiment [5], in experiment [6] and in experiment [7] was greater than 100 µM in each case. Moreover, the TGI in experiment [8], in [9], in experiment [10] and in experiment [11] was greater than 100 µM each time.

`C=C(C)[C@@H]1CC[C@]2(C(=O)O)CC[C@]3(C)[C@H](CCC4[C@@]5(C)CC[C@H](C(=O)/C=C/c6ccc(O)c(O)c6)C(C)(C)[C@@H]5CC[C@]43C)[C@@H]12` (some centres not stated): the TGI was 95.7 µM in [1]; 30.2 µM in [3]; 15.9 µM in [4]; greater than 100 µM in [5]; 27.6 µM in [6]; 22.5 µM in experiment [7]. In addition, the TGI in experiment [9] and in [10] was greater than 100 µM each time.

`CC(C)OC1OC(CO)C(O)CC1n1cc(F)c(=O)[nH]c1=O` (configuration not stated): the TGI in experiment [1], in experiment [2], in [3], in experiment [4], in [5] and in [6] was greater than 100 µM in each case. Moreover, the TGI in experiment [7], in [8], in experiment [9] and in [11] was greater than 100 µM throughout.

On to `Cc1nc(-c2cc3cc(Cl)ccc3oc2=O)cc2c1c(=O)oc1ccc(Cl)cc12`, for which the TGI in [1], in experiment [3], in experiment [4], in experiment [5], in [6] and in experiment [7] was greater than 100 µM in each case. The TGI in [8], in experiment [9], in experiment [10] and in [11] was greater than 100 µM in each case.

Regarding `c1ccc(-c2nnn(CCN3CCCCC3)n2)cc1`, the TGI in experiment [1], in experiment [3], in experiment [4], in experiment [5], in experiment [6] and in experiment [7] was greater than 100 µM each time. Further, the TGI in [8], in experiment [9], in experiment [10] and in [11] was greater than 100 µM in each case.

Take `CC1CC/C(=C\c2ccc(Cl)cc2)c2nc(N)c(C#N)c(-c3ccc(Cl)cc3)c21` (configuration not stated): the TGI in [1], in [2], in experiment [3], in experiment [4], in experiment [5] and in experiment [6] was greater than 100 µM each time. Also, the TGI in experiment [7], in [8], in [10] and in experiment [11] was greater than 100 µM each time.

As for `O=[N+]([O-])c1ccc(C(Nc2ccccc2)c2ccc3cccnc3c2O)cc1` (configuration not stated), the TGI in experiment [1] is 44.4 µM; in [2] it was 21.1 µM; in [3], 26.1 µM; in [4], greater than 100 µM; in experiment [5], greater than 70.3 µM; in [6], 35.8 µM. In addition, the TGI in experiment [7] was 33.6 µM; in experiment [8], greater than 100 µM; in experiment [9] it was greater than 52.7 µM; in [11] it was 25.2 µM.

As to `NC(=O)Cc1nc2c(=O)[nH]cnc2n1C1OC(CO)C(O)C1O` (configuration not stated), the TGI in [1], in [2], in experiment [3], in [4], in experiment [5] and in experiment [6] was greater than 100 µM each time. Also, the TGI in [7], in [8], in experiment [9] and in experiment [11] was greater than 100 µM in each case.

Consider `CCN(CC)c1ccc2cc(-c3nc4ccccc4c(=O)[nH]3)c(=N)oc2c1`, for which the TGI in [1], in [2], in experiment [3], in [4], in experiment [5] and in experiment [6] was greater than 100 µM in each case. The TGI in experiment [8], in experiment [9], in experiment [10] and in experiment [11] was greater than 100 µM throughout.

Consider `COc1c(C)c(C/C=C(\C)CC/C=C(\C)CCC=C(C)C)c(OC)c(OC)c1OC`, for which the TGI in experiment [2], in experiment [3], in experiment [4], in experiment [5], in experiment [6] and in experiment [7] was greater than 100 µM throughout. Further, the TGI in experiment [8], in experiment [9], in experiment [10] and in experiment [11] was greater than 100 µM each time.

Consider `COC1(OC)c2no[n+]([O-])c2C(OC)(OC)c2c1no[n+]2[O-]`, for which the TGI in experiment [1] is greater than 100 µM; in experiment [2], 38 µM; in experiment [3], 48.9 µM; in experiment [4], 62.8 µM; in experiment [6], 24.3 µM; in experiment [7], 28.3 µM. The TGI in experiment [8] is 37.7 µM; in experiment [9] it was 73.3 µM; in experiment [10], 31.6 µM.

With `NC(=O)CO/N=C1/C(c2c(O)[nH]c3ccccc23)=Nc2ccccc21`, the TGI in experiment [2], in experiment [3], in experiment [4], in experiment [5], in [6] and in experiment [7] was greater than 100 µM in each case. Moreover, the TGI was greater than 100 µM in experiment [8], greater than 100 µM in [9], greater than 56.9 µM in [10] and greater than 100 µM in experiment [11].

Turning to `Cc1cc2c(c(=O)n1C)SCC2`, the TGI in experiment [1], in experiment [3], in [4], in experiment [5], in experiment [6] and in experiment [7] was greater than 100 µM in each case. The TGI in [8], in [9], in [10] and in experiment [11] was greater than 100 µM each time.

For the compound `CC(C)(C)C1CC[C@H](O)[C@H]([C@H](O)CC2CC(=O)N(c3ccccc3)C(=O)C2)C1` (some centres not stated), the TGI in experiment [2], in experiment [3], in experiment [4], in [5], in experiment [6] and in experiment [7] was greater than 100 µM each time. In addition, the TGI in [8], in [9], in experiment [10] and in experiment [11] was greater than 100 µM each time.
